Assay results: patent publication EP0348399B1, “SORBIN AND PEPTIDE DERIVATIVES WHICH INCREASE ABORPTION BY THE MUCOUS MEMBRANES” (INSTITUT NATIONAL DE LA SANTE ET DE LA RECHERCHE MEDICALE …, priority 1988, dated 1992)

Tests used:
[1] = Arterial blood pressure measured by carotid catheterisation; assay type: in vivo; details: measured by catheterisation of the carotid, result in words
rat = test: Water and electrolyte movements in ligated intestinal loops of the anaesthetised rat, peptides given by intravenous infusion; assay type: in vivo; details: rat duodenal loop, i.v. infusion, dose 50 pmol/100g, 1 h contact; controls (TEMOINS) = 0; (-) absorption, (+) secretion; mean, groups of 8 or more
Method: Chez le rat privé d'aliment depuis 45 heures mais recevant de l'eau à volonté, une anesthésie est assurée par le pentobarbital sodique, un cathéter est placé sur une jugulaire, trois anses duodénale, jéjunale et iléale sont constituées entre deux ligatures. Un ml de solution test contenant 70 mM de NaCl, 5,2 mM de KCl, […] de CaCl₂, 10 mM de CO₃Na ET 136 mM de mannitol est instillé dans chaque anse, le PEG 4000 marqué au ³H est utilisé comme marqueur non absorbable, le ²²Na ou le ³⁶Cl comme marqueurs des flux bidirectionnels de sodium ou de chlore. La sorbine ou les peptides de synthèse sont administrés par voie veineuse dans du NaCl à 0,9%, à un débit de 3 ml/h. Après une heure de contact, le liquide restant dans la lumière de l'anse est collecté, le volume et les concentrations de Na, Ca, K, Cl et HCO₃ ainsi que la radioactivité liée au tritium, au chlore ou au sodium sont mesurés.
L'absorption est indiquée par un signe (-), la sécrétion par un signe (+). les résultats concernent des groupes de 8 animaux ou plus M ± SEM ^. P<0.05 ^..P<0.01

Row | Molecule | tension artérielle [1] | Cl (rat) | Eau (rat) | Na (rat)
1 | CC[C@H](C)[C@H](NC(=O)[C@H](Cc1ccc(O)cc1)NC(=O)[C@@H](NC(=O)[C@H](CCCNC(=N)N)NC(=O)[C@@H](N)CC(=O)O)C(C)C)C(=O)N[C@@H](Cc1cnc[nH]1)C(=O)N1CCC[C@H]1C(=O)N[C@@H](Cc1ccccc1)C(=O)O [ANGIOTENSINE II, angiotensine II] | augmentation de la tension artérielle | – | – | –
2 | HEPTAPEPTIDE | – | -36,1 µeq | -0,20 ml | -30,7 µeq
